This passage reports IC50 results from patent publication US20240383898A1, “PYRIDO RING COMPOUND, PREPARATION METHOD THEREFOR, INTERMEDIATE, COMPOSITION, AND APPLICATION” (YIYOU BIOTECH (SHANGHAI) CO., LTD, priority 2021, published 2024).

The target of test [1] is T1, JAK2 (Homo sapiens, UniProt O60674).
T1 construct: purchased Carna 08-045
The experiment in a line: In vitro activity test of JAK2 kinase (Caliper EZ Reader conversion assay). In kind it is biochemical. The note with it: enzyme activity, 10 concentrations from 1000 nM, 3-fold dilution. The method in brief:
(§1)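 JAK1 or JAK2 pre-incubated with compound (top 1000 nM, 3-fold, 10 points, duplicate) for 10 min at room temperature, then ATP plus substrate added. Substrate conversion read by mobility-shift on Caliper EZ Reader after stop solution. Inhibition normalized to no-enzyme and DMSO controls; IC50 from variable-slope four-parameter fit.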

Test [2] has as its target T2, JAK1 (Homo sapiens, UniProt P23458).
T2 construct: purchased Carna 08-114
Nature of the test: In vitro activity test of JAK1 kinase (Caliper EZ Reader conversion assay). Format: biochemical. To be noted: enzyme activity, 10 concentrations from 1000 nM, 3-fold dilution. The essentials:
as §1

Some results are limits rather than exact numbers.

Usually IC50 stands for the concentration that inhibits the measured activity by half.

T2 sequence (P23458 whole entry, species assumed): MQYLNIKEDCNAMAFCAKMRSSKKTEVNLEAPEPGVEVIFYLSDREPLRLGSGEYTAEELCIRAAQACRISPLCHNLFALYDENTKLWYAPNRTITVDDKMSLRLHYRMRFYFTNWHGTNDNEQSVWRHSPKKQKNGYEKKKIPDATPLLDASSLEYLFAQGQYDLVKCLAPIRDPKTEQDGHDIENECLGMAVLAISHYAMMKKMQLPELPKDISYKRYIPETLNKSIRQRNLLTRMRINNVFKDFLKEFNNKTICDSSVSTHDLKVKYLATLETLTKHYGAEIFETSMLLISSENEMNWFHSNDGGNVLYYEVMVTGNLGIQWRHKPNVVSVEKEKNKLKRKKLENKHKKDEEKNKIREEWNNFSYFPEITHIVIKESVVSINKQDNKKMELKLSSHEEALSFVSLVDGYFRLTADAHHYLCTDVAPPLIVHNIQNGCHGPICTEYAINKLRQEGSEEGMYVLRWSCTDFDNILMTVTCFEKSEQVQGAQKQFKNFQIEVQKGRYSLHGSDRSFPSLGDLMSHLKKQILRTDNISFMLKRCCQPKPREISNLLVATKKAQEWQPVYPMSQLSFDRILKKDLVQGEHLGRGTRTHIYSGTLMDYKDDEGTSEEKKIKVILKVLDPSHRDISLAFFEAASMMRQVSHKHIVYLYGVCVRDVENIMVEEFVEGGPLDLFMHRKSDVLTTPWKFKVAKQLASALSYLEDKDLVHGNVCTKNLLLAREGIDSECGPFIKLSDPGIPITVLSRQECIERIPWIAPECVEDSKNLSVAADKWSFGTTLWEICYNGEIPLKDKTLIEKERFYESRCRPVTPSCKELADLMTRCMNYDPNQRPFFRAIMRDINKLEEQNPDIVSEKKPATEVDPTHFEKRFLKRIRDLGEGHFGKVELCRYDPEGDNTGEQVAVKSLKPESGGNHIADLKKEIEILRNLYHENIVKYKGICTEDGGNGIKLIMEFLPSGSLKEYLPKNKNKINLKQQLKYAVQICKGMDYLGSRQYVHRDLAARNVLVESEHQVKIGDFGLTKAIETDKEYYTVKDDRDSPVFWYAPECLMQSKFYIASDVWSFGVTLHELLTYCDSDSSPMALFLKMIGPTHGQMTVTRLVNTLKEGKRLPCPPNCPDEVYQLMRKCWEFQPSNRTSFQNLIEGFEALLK
T1 sequence (O60674 whole entry, species assumed): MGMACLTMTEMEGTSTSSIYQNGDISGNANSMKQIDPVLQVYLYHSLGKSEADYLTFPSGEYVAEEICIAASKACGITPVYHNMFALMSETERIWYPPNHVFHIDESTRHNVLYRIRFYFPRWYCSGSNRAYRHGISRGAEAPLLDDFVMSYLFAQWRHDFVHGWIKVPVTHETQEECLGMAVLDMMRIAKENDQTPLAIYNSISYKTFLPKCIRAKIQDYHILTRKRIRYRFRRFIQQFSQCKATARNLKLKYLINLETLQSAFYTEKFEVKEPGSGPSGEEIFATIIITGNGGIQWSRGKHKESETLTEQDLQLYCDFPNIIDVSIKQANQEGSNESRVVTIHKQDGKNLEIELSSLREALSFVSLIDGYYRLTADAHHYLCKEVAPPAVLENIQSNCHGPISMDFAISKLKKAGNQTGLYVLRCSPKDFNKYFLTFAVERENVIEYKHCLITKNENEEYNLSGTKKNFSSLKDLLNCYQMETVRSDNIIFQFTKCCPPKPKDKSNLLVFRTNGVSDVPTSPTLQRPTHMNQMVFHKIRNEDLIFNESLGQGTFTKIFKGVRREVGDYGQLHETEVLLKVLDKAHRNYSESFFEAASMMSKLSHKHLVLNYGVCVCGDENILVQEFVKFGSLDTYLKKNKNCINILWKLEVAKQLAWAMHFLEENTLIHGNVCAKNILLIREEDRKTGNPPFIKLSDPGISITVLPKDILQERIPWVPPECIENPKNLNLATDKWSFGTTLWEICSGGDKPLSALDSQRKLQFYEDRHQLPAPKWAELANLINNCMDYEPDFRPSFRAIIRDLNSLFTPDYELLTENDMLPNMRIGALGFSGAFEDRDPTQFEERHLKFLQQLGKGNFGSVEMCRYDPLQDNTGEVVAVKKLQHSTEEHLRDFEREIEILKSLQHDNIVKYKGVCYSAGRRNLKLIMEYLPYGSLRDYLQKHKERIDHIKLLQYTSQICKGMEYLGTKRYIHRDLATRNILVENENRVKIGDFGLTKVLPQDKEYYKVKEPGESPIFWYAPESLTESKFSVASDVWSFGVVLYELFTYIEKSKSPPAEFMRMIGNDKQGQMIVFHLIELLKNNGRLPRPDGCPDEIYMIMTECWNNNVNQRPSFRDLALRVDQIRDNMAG

Turning to `C[C@@H](O)c1nc2cnc3[nH]ccc3c2n1[C@H]1C[C@H](CO)N(CCCC(F)(F)F)C1` [LXS91, (R)-1-(1-((3S,5R)-5-(hydroxymethyl)-1-(4,4,4-trifluorobutyl)pyrrolidin-3-yl)-1,6-dihydroimidazo[4,5-d]pyrrolo[2,3-b]pyridin-2-yl)ethan-1-ol], the IC50 in test [1] was 100 to 1000 nM; in test [2], below 10 nM.

As for `N#C[C@H]1CC[C@H](n2c(-c3cccc(O)c3)nc3cnc4[nH]ccc4c32)CC1` (stereo in doubt) [LXS35, trans-4-(2-(3-Hydroxyphenyl)imidazo[4,5-d]pyrrolo[2,3-b]pyridin-1(6H)-yl)cyclohexanecarbonitrile], the IC50 is below 10 nM in test [1] and 10 to 100 nM in test [2].

`CCS(=O)(=O)N1CC(CC#N)(n2cc(-n3c(-c4ccc(C)o4)nc4cnc5[nH]ccc5c43)cn2)C1` [LXS77, 2-(1-(ethylsulfonyl)-3-(4-(2-(5-methylfuran-2-yl)imidazolyl[4,5-d]pyrrolo[2,3-b]pyridin-1(6H)-yl)-1H-pyrazol-1-yl)azetidin-3-yl) acetonitrile]: the IC50 in test [1] was below 10 nM; in test [2], 100 to 1000 nM.

Take `N#CCC(C1CCCC1)n1cc(-n2c(C(F)(F)F)nc3cnc4[nH]ccc4c32)cn1` (stereo not shown) [LXS66, 3-Cyclopentyl-3-(4-(2-(trifluoromethyl)imidazo[4,5-d]pyrrolo[2,3-b]pyridin-1(6H)-yl)-1H-pyrazol-1-yl)propanenitrile]: the IC50 in test [1] and in test [2] was 10 to 100 nM each time.

Consider `CCCS(=O)(=O)N1CCC(n2c(-c3ccc(CO)o3)nc3cnc4[nH]ccc4c32)C1` (stereo not shown) [LXS16], for which the IC50 in test [1] and in test [2] was 10 to 100 nM each time.
